The numbers were not newly measured in patent publication US10006071B2, “Methods to control secretion of metabolic byproducts in algae to enhance recovery of said byproducts” (Institute for Systems Biology, priority 2010, dated 2018), which cites them from elsewhere.

Read-outs that look alike come from different tables or passages of the source. Residues, ends and D or L forms follow the SMILES beside them. *: point of attachment. Cbz = O=C(OCc1ccccc1)*; CH2F = FC*

The test system of series [1] is Metacaspase.
Series [2] relates to metacaspase.

Turning to `CC(=O)N[C@H](C(=O)N[C@@H](C)C(=O)N[C@@H](CC(=O)O)C(=O)CF)C(C)C` [Ac-VAD-FMK] (HELM PEPTIDE1{[ac].V.A.D.[FC[*:1]]}$$$$V2.0), the “inhibition of caspase-3” value in the series with caspase-3 is given as “inhibit”. Also, in the series with Caspase-1, the “inhibition of caspase-1” value was “inhibited”. Further, the “inhibition of caspase-6” value in the series with Caspase-6 is “inhibited”. In the series on Caspase-9, the “inhibition of caspase-9” value is recorded as “inhibited”. Besides, the “inhibition of caspase-8” value with Caspase-8 is listed as “inhibited”.

`CC(=O)N[C@@H](Cc1ccc(O)cc1)C(=O)N[C@@H](CCC(=O)O)C(=O)N[C@H](C(=O)N[C@@H](CC(=O)O)C(=O)CCl)C(C)C` [Ac-YEVD-CMK] (HELM PEPTIDE1{[ac].Y.E.V.D.[ClC[*:1]]}$$$$V2.0): the “inhibition of caspase-3” value in the series on caspase-3 was “inhibit”. Further, the “inhibition of caspase-1” value in the series on Caspase-1 was “inhibited”. In addition, the “inhibition of caspase-6” value in the series on Caspase-6 is reported as “inhibited”. Besides, the “inhibition of caspase-9” value with Caspase-9 was “inhibited”. For the same compound, the “inhibition of caspase-8” value in the series on Caspase-8 is “inhibited”.

For `CC(=O)N[C@@H](CC(=O)O)C(=O)N[C@@H](CCC(=O)O)C(=O)N[C@H](C(=O)N[C@H](C=O)CC(=O)O)C(C)C` [AcDEVD-CHO], the “inhibition of caspase-3” value with caspase-3 (Chlorella saccharophila) was “inhibit”. Also, the inhibition of metacaspase entry with Metacaspase [1] is on record as “inhibited”.

Turning to `COC(=O)CC(NC(=O)OC(C)(C)C)C(=O)CF` [Boc D-FMK], in the series with caspase-3, the “inhibition of caspase-3” value is “inhibit”. For the same compound, the “inhibition of caspase-1” value in the series with Caspase-1 is recorded as “inhibited”. In addition, the “inhibition of caspase-6” value in the series with Caspase-6 is “inhibited”. The “inhibition of caspase-9” value in the series with Caspase-9 is “inhibited”. The “inhibition of caspase-8” value with Caspase-8 was “inhibited”.

As for `O=C(O)CN(CCN(CC(=O)O)CC(=O)O)CCN(CC(=O)O)CC(=O)O` [DTPA, diethylene triamine pentaacetic acid], the effect on apoptosis result in the series with apoptosis is on record as “permits apoptosis to occur”.

For the compound `c1ccc(CN(CCN(Cc2ccccn2)Cc2ccccn2)Cc2ccccn2)nc1` [TPEN, N,N,N′,N′-tetrakis(2-pyridylmethyl)ethylenediamine], the effect on apoptosis result in the series with apoptosis is listed as “permits apoptosis to occur”.

`COC(=O)CC[C@H](NC(=O)[C@H](CC(=O)OC)NC(=O)OCc1ccccc1)C(=O)N[C@H](C(=O)N[C@@H](CC(=O)OC)C(=O)CF)C(C)C` [Z-DEVD-FMK]: the inhibition of metacaspase entry in the series on Metacaspase [1] was “inhibited”; in the series on metacaspase [2], “inhibits”.

Turning to `[Zn+2]` [Zn^+2], the “inhibition of caspase-3” value in the series on caspase-3 is “potent inhibitor”. Besides, the effect on apoptosis entry with apoptosis is “inhibit apoptosis”.

On to `COC(=O)C[C@H](NC(=O)[C@H](C)NC(=O)[C@@H](NC(=O)OCc1ccccc1)C(C)C)C(=O)CF` [zVAD-fmk] (Cbz-Val-Ala-Asp(OMe)-CH2F), for which the inhibition of metacaspase result in the series on Metacaspase [1] is recorded as “inhibited”.
